Measured values as given in US10004701B2, “Methods and compositions for treating infection” (UNIVERSITY OF ROCHESTER, priority 2012, dated 2018).
Structures can show the parent of a compound that is named as a salt. Where two headings read alike, the source gives them in different places.

Columns and labels:
Assay in all cases: AK assay 384-well format, Prestwick library screening
E. faecium = assay type: cell-based, Enterococcus faecium; details: Enterococcus faecium, 3 h, 50 μM final drug concentration
[1] = tested on: S. aureus strain USA300-0114; assay type: cell-based, Staphylococcus aureus; details: Staphylococcus aureus, USA300, 3 h, 50 μM final drug concentration
K. pneumoniae = assay type: cell-based, Klebsiella pneumoniae; details: Klebsiella pneumoniae, 3 h, 50 μM final drug concentration
[2] = tested on: A. baumannii strain 98-37-09; assay type: cell-based, Acinetobacter baumannii; details: Acinetobacter baumannii, 983709, 3 h, 50 μM final drug concentration
P. aeruginosa = assay type: cell-based, Pseudomonas aeruginosa; details: Pseudomonas aeruginosa, 3 h, 50 μM final drug concentration
E. cloacae = assay type: cell-based, Enterobacter cloacae; details: Enterobacter cloacae, 3 h, 50 μM final drug concentration
E. coli = assay type: cell-based, Escherichia coli; details: Escherichia coli, 3 h, 50 μM final drug concentration
[3] = 384-well format, cutoff for positive-scoring molecules 3-fold increase, read-out: AK-based Prestwick Library Screening Results, E. faecium (increase in extracellular AK activity)
[4] = 384-well format, cutoff for positive-scoring molecules 3-fold increase, read-out: AK-based Prestwick Library Screening Results, S. aureus (increase in extracellular AK activity)
[5] = 384-well format, cutoff for positive-scoring molecules 3-fold increase, read-out: AK-based Prestwick Library Screening Results, K. pneumoniae (increase in extracellular AK activity)
[6] = 384-well format, cutoff for positive-scoring molecules 3-fold increase, read-out: AK-based Prestwick Library Screening Results, A. baumannii (increase in extracellular AK activity)
[7] = 384-well format, cutoff for positive-scoring molecules 3-fold increase, read-out: AK-based Prestwick Library Screening Results, P. aeruginosa (increase in extracellular AK activity)
[8] = 384-well format, cutoff for positive-scoring molecules 3-fold increase, read-out: AK-based Prestwick Library Screening Results, E. cloacae (increase in extracellular AK activity)
[9] = 384-well format, cutoff for positive-scoring molecules 3-fold increase, read-out: AK-based Prestwick Library Screening Results, E. coli (increase in extracellular AK activity)
[10] = planktonic, […], read-out: AK-based Prestwick Library Screening Results, E. faecium (fold increase in extracellular AK activity)
[11] = planktonic, […], read-out: AK-based Prestwick Library Screening Results, S. aureus (fold increase in extracellular AK activity)
[12] = planktonic, […], read-out: AK-based Prestwick Library Screening Results, K. pneumoniae (fold increase in extracellular AK activity)
[13] = planktonic, […], read-out: AK-based Prestwick Library Screening Results, A. baumannii (fold increase in extracellular AK activity)
[14] = planktonic, […], read-out: AK-based Prestwick Library Screening Results, P. aeruginosa (fold increase in extracellular AK activity)
[15] = planktonic, […], read-out: AK-based Prestwick Library Screening Results, E. cloacae (fold increase in extracellular AK activity)
[16] = planktonic, […], read-out: AK-based Prestwick Library Screening Results, E. coli (fold increase in extracellular AK activity)

COc1ccc(C(=O)NCc2cccnc2)cc1C(=O)NCc1cccnc1 [Picotamide monohydrate]
fold induction at 50 µM (E. faecium; [3]): 0.9
fold induction at 50 µM [1, 4]: 0.7
fold induction at 50 µM (K. pneumoniae; [5]): 0.8
fold induction at 50 µM [2, 6]: 0.9
fold induction at 50 µM (P. aeruginosa; [7]): 0.8
fold induction at 50 µM (E. cloacae; [8]): 1.2
fold induction at 50 µM (E. coli; [9]): 0.9

C=C(C)[C@@H]1[C@H]2OC(=O)[C@@H]1[C@]1(O)C[C@H]3O[C@]34C(=O)O[C@H]2[C@]14C [Picrotoxinin]
fold induction at 50 µM (E. faecium; [10]): 1
fold induction at 50 µM [1, 11]: 0.6
fold induction at 50 µM (K. pneumoniae; [12]): 0.6
fold induction at 50 µM [2, 13]: 0.7
fold induction at 50 µM (P. aeruginosa; [14]): 0.6
fold induction at 50 µM (E. cloacae; [15]): 0.7
fold induction at 50 µM (E. coli; [16]): 0.6

CC[C@@H]1C(=O)OC[C@@H]1Cc1cncn1C [Pilocarpine nitrate]
fold induction at 50 µM (E. faecium; planktonic, cutoff for positive 3-fold increase, read-out: AK-based Prestwick Library Screening Results, E. faecium (fold increase in extracellular AK activity)): 1.1
fold induction at 50 µM ([1]; planktonic, cutoff for positive 3-fold increase, read-out: AK-based Prestwick Library Screening Results, S. aureus (fold increase in extracellular AK activity)): 1.3
fold induction at 50 µM (K. pneumoniae; planktonic, cutoff for positive 3-fold increase, read-out: AK-based Prestwick Library Screening Results, K. pneumoniae (fold increase in extracellular AK activity)): 0.9
fold induction at 50 µM ([2]; planktonic, cutoff for positive 3-fold increase, read-out: AK-based Prestwick Library Screening Results, A. baumannii (fold increase in extracellular AK activity)): 1
fold induction at 50 µM (P. aeruginosa; planktonic, cutoff for positive 3-fold increase, read-out: AK-based Prestwick Library Screening Results, P. aeruginosa (fold increase in extracellular AK activity)): 1
fold induction at 50 µM (E. cloacae; planktonic, cutoff for positive 3-fold increase, read-out: AK-based Prestwick Library Screening Results, E. cloacae (fold increase in extracellular AK activity)): 1.5
fold induction at 50 µM (E. coli; planktonic, cutoff for positive 3-fold increase, read-out: AK-based Prestwick Library Screening Results, E. coli (fold increase in extracellular AK activity)): 1

CN1CCC(=C2c3ccccc3Sc3ccccc32)CC1 [Pimethixene maleate]
fold induction at 50 µM (E. faecium; planktonic E. faecium, 384-well, […], read-out: AK-based Prestwick Library Screening Results: E. faecium (increase in extracellular AK activity)): 1.1
fold induction at 50 µM ([1]; planktonic S. aureus, 384-well, […], read-out: AK-based Prestwick Library Screening Results: S. aureus (increase in extracellular AK activity)): 0.9
fold induction at 50 µM (K. pneumoniae; planktonic K. pneumoniae, 384-well, […], read-out: AK-based Prestwick Library Screening Results: K. pneumoniae (increase in extracellular AK activity)): 1.2
fold induction at 50 µM ([2]; planktonic A. baumannii, 384-well, […], read-out: AK-based Prestwick Library Screening Results: A. baumannii (increase in extracellular AK activity)): 1.1
fold induction at 50 µM (P. aeruginosa; planktonic P. aeruginosa, 384-well, […], read-out: AK-based Prestwick Library Screening Results: P. aeruginosa (increase in extracellular AK activity)): 1.1
fold induction at 50 µM (E. cloacae; planktonic E. cloacae, 384-well, […], read-out: AK-based Prestwick Library Screening Results: E. cloacae (increase in extracellular AK activity)): 1.4
fold induction at 50 µM (E. coli; planktonic E. coli, 384-well, […], read-out: AK-based Prestwick Library Screening Results: E. coli (increase in extracellular AK activity)): 1.4

O=c1[nH]c2ccccc2n1C1CCN(CCCC(c2ccc(F)cc2)c2ccc(F)cc2)CC1 [Pimozide]
fold induction at 50 µM (E. faecium; planktonic E. faecium, 384-well, cutoff for positive-scoring molecules 3-fold increase, read-out: AK-based Prestwick Library Screening Results: E. faecium (increase in extracellular AK activity)): 1.3
fold induction at 50 µM ([1]; planktonic S. aureus, 384-well, cutoff for positive-scoring molecules 3-fold increase, read-out: AK-based Prestwick Library Screening Results: S. aureus (increase in extracellular AK activity)): 2.3
fold induction at 50 µM (K. pneumoniae; planktonic K. pneumoniae, 384-well, cutoff for positive-scoring molecules 3-fold increase, read-out: AK-based Prestwick Library Screening Results: K. pneumoniae (increase in extracellular AK activity)): 1.3
fold induction at 50 µM ([2]; planktonic A. baumannii, 384-well, cutoff for positive-scoring molecules 3-fold increase, read-out: AK-based Prestwick Library Screening Results: A. baumannii (increase in extracellular AK activity)): 8.7
fold induction at 50 µM (P. aeruginosa; planktonic P. aeruginosa, 384-well, cutoff for positive-scoring molecules 3-fold increase, read-out: AK-based Prestwick Library Screening Results: P. aeruginosa (increase in extracellular AK activity)): 1.3
fold induction at 50 µM (E. cloacae; planktonic E. cloacae, 384-well, cutoff for positive-scoring molecules 3-fold increase, read-out: AK-based Prestwick Library Screening Results: E. cloacae (increase in extracellular AK activity)): 1.2
fold induction at 50 µM (E. coli; planktonic E. coli, 384-well, cutoff for positive-scoring molecules 3-fold increase, read-out: AK-based Prestwick Library Screening Results: E. coli (increase in extracellular AK activity)): 1.7

CC(N/C(=N\C#N)Nc1ccncc1)C(C)(C)C (stereo not drawn) [Pinacidil]
fold induction at 50 µM (E. faecium; [3]): 0.9
fold induction at 50 µM [1, 4]: 0.5
fold induction at 50 µM (K. pneumoniae; [5]): 0.5
fold induction at 50 µM [2, 6]: 0.5
fold induction at 50 µM (P. aeruginosa; [7]): 0.5
fold induction at 50 µM (E. cloacae; [8]): 0.6
fold induction at 50 µM (E. coli; [9]): 0.5

CC(C)NCC(O)COc1cccc2[nH]ccc12 (stereo not drawn) [Pindolol]
fold induction at 50 µM (E. faecium; [3]): 1
fold induction at 50 µM [1, 4]: 0.5
fold induction at 50 µM (K. pneumoniae; [5]): 0.6
fold induction at 50 µM [2, 6]: 0.5
fold induction at 50 µM (P. aeruginosa; [7]): 0.4
fold induction at 50 µM (E. cloacae; [8]): 0.4
fold induction at 50 µM (E. coli; [9]): 0.5

CCn1cc(C(=O)O)c(=O)c2cnc(N3CCNCC3)nc21 [Pipemidic acid]
fold induction at 50 µM (E. faecium; [10]): 1.1
fold induction at 50 µM [1, 11]: 0.7
fold induction at 50 µM (K. pneumoniae; [12]): 1.7
fold induction at 50 µM [2, 13]: 0.9
fold induction at 50 µM (P. aeruginosa; [14]): 0.9
fold induction at 50 µM (E. cloacae; [15]): 1
fold induction at 50 µM (E. coli; [16]): 14.7

CC[N+]1(C)CCCC(OC(=O)C(O)(c2ccccc2)c2ccccc2)C1 (stereo not drawn) [Pipenzolate bromide]
fold induction at 50 µM (E. faecium; planktonic, cutoff for positive-scoring molecules 3-fold increase, read-out: AK-based Prestwick Library Screening Results, E. faecium (fold increase in extracellular AK activity)): 0.9
fold induction at 50 µM ([1]; planktonic, cutoff for positive-scoring molecules 3-fold increase, read-out: AK-based Prestwick Library Screening Results, S. aureus (fold increase in extracellular AK activity)): 0.8
fold induction at 50 µM (K. pneumoniae; planktonic, cutoff for positive-scoring molecules 3-fold increase, read-out: AK-based Prestwick Library Screening Results, K. pneumoniae (fold increase in extracellular AK activity)): 0.7
fold induction at 50 µM ([2]; planktonic, cutoff for positive-scoring molecules 3-fold increase, read-out: AK-based Prestwick Library Screening Results, A. baumannii (fold increase in extracellular AK activity)): 0.7
fold induction at 50 µM (P. aeruginosa; planktonic, cutoff for positive-scoring molecules 3-fold increase, read-out: AK-based Prestwick Library Screening Results, P. aeruginosa (fold increase in extracellular AK activity)): 0.8
fold induction at 50 µM (E. cloacae; planktonic, cutoff for positive-scoring molecules 3-fold increase, read-out: AK-based Prestwick Library Screening Results, E. cloacae (fold increase in extracellular AK activity)): 0.9
fold induction at 50 µM (E. coli; planktonic, cutoff for positive-scoring molecules 3-fold increase, read-out: AK-based Prestwick Library Screening Results, E. coli (fold increase in extracellular AK activity)): 0.9
